Experimental findings from patent publication US20020169123A1, “Regulating apoptosis in TRAIL-resistant cancer cells, while protecting normal, non-cancerous cells” (THE TRUSTEES OF THE UNIVERSITY OF PENNSYLVANIA, priority 2001, published 2002) are described below.

The test system of data set [1] is esophageal cancer cell lines. Briefly: active-caspase 3 assay, TRAIL cytotoxicity on esophageal cancer cell lines. In kind it is cell-based, human. On the procedure:
To assess TRAIL cytotoxicity on esophageal cancer cells, the active-caspase 3 assay was used. […] After 16 hours of the TRAIL treatment, the cells were harvested and the active-caspase 3 assay was performed as described in the Experimental Procedures above. In the case of CHX treatment, the cells were pre-treated with CHX (10 μg/mL final concentration) for 6 hours before the addition of TRAIL.
The protein synthesis inhibitor, cycloheximide (“CHX”), has been widely used with apoptosis-inducing ligands, such as FAS/FASL, TNF-α, or TRAIL, to induce cell death effectively. […] This is because previous observers have reported that over-expression of c-FLIP can interrupt the recruitment of caspase 8 into DISC, thereby preventing down stream activation of the caspase cascade (Wajant et al., J. Biol. Chem. 275:24357-24366 (2000)). It has also been reported that CHX might sensitize the cells to TRAIL by inhibiting a de novo synthesis of c-FLIP, thereby increasing the recruitment of caspase 8 into DISC (Fulda et al., Cancer Res. 60:3947-3956 (2000)), followed by activation of downstream apoptotic signaling cascade.

In data set [2] the test system is HCE4 cells. Briefly: DISC IP analysis, recruitment of caspase 8 into DISC. The format is cell-based, human. As to conditions: CHX-pre-treated vs control. The protocol: (§1) To perform the DISC analysis, cells were grown, harvested and re-suspended in 2 mL of DMEM (1.5×10^7 cells/mL). TRAIL (500 ng/mL final concentration) and anti-6× His antibody (2.5 μg/mL final concentration) were pre-mixed for 10 minutes on ice, then added to the re-suspended cells. The cells were treated with TRAIL for 20 minutes in a 37° C. water bath with intermittent agitation. TRAIL treatment was stopped by adding 5 mL of ice-cold PBS, followed by immediate centrifugation. […]
(§2) To the cleared lysate, 30 μL of protein A/G plus agarose beads (Santa Cruz) were added and incubated overnight in a cold room with continuous rocking. […] After centrifugation at the same condition, the precipitates were re-suspended in 1× SDS loading buffer and analyzed by 12% SDS-PAGE and western immunostaining.
(§3) In the control used to verify the DISC without TRAIL stimulation, the same amounts of TRAIL and antibody were added to the lysate after the cells were lysed with IP lysis buffer. Equal amounts of total cell lysates were also analyzed as an expression control. […]
(§4) FIGS. 3A and 3B depict an immunostained western blot showing the sensitization of TRAIL-resistant HCE4 cells to TRAIL resulting from CHX pre-treatment. […] Actin levels were measured as a control standard.

In data set [3] the test system is TE9 cells. Described as above. As to conditions: CHX-pre-treated vs control. The format is cell-based, human. The protocol: as §1, §2, §3, §4
Data set [4] concerns TRAIL-resistant HCE4 cell line. Briefly: time course western blot of caspase activation and PARP cleavage. The format is cell-based, human. Conditions: only in CHX-pretreated HCE4 cells; 6 hours CHX pre-incubation. On the procedure:
(§5) Western blot analysis was carried out as previously described (Meng et al., Clin. Cancer Res. 4:251-259 (1998)). Blotted membranes were immunostained with anti-DR4 (1:500; Pharmingen), anti-DR5 (1:500; IMGENEX, San Diego, Calif.), anti-DcR1 (1:500; Pharmingen), anti-DcR2 (1:500; Pharmingen), anti-FADD (Clone IF7, 1:2000; Upstate Biotechnology, Lake Placid, N.Y.), anti-caspase 8 (Clone 5F7, 1:1000; Upstate Biotechnology), anti-FLIP (Clone Dave-2, 1:1000; Alexis Biochemicals, San Diego, Calif.), anti-Bid (1:500; Pharmingen), anti-Bax (1:500, Pharmingen), anti Bcl-2 (Bcl-2/100, 1:500; Pharmingen), anti-Bcl-xL (1:500; Pharmingen), anti-caspase 3 (E-8, 1:200; Santa Cruz, Santa Cruz, Calif.), anti-PARP (1:2000; Roche Diagnostics GmbH, Mannheim, Germany), anti-TRAIL (1:500; PeproTech Inc., Rocky Hill, N.J.), or anti-actin (I-19, 1:200; Santa Cruz).
A time course experiment was performed using the TRAIL-resistant HCE4 cell line. After 6 hours of pre-incubation in the presence or absence of CHX, the cells were exposed to TRAIL, then lysates were prepared and harvested at time points every 30 minutes after the addition of TRAIL, up to 4 hrs by adding 1× SDS loading buffer. The timed lysates were subjected to 10 or 12% SDS-PAGE, and then immunoblotted and stained with the indicated antibodies (FIG. 3). […]
(A western blot detects proteins with antibodies after separation by electrophoresis.)

The test system of data set [5] is HFK cells. Briefly: active-caspase 3 assay on foreskin keratinocytes. In kind it is cell-based, human. As to conditions: increasing concentrations of TRAIL, 4 hours. From the text: Experiments were done in duplicate (mean value±SD).
For data set [6], the system named is EPC2 normal esophageal epithelial cells. As to conditions: EPC2 cells.
Protocol: Normal human primary epithelial cells (EPC2, provided by Dr. Anil Rustgi, University of Pennsylvania) and primary human foreskin keratinocytes (HFK, provided by Dr. John C. Ansel, Emory University), were grown in Keratinocyte-SFM medium (Gibco BRL, Rockville, Md.) containing bovine pituitary extract (40 μg/mL) and epidermal growth factor (1 ng/mL). The primary epithelial cells were used at passage 4 or 5.
The N-terminal histidine (His) tagged recombinant human TRAIL (rhTRAIL, Thr-95 to Gly-281) was obtained from R&D Systems (Minneapolis, Minn.). A mouse monoclonal anti-6× His antibody (R&D Systems) was used for cross-linking the rhTRAIL. […] Cells were treated with TRAIL (50 ng/mL final concentration) and 1 μg/mL of anti-6× His (N-terrninal histidine antibody) for 4 hours or for 16 hours. The caspase inhibitor was used at a final concentration of 20 μM, and was added 2 hours prior to the addition of TRAIL. […] In the case of adriamycin, cells were pre-treated with adriamycin (0.5 μM final concentration) for 16 hours before the addition of TRAIL.
(§6) For detecting apoptosis mediated by TRAIL, an active-caspase 3 assay was performed using Cytofix/Cytoperm kit (Pharmingen, San Diego, Calif.), as previously described (Kim et al., Int. J. Oncol. 18:241-247 (2001)). Briefly, using standard techniques, 5×10^5 cells were seeded into a 6 well plate, after which, the cells were treated with TRAIL cross-linked with anti-6× His antibody. […] After washing, the cells were probed with 0.125 μg/μl of Phycoerythrin (PE)-conjugated goat anti-rabbit secondary antibody (Ab) (CALTAG Laboratories, Burlingame, Calif.) for 20 minutes in the dark. The intensity of PE was analyzed by flow cytometry using a Beckman-Coulter Epics Elite analyzer.
Data set [7] relates to TE5 cells. Briefly: suppression of endogenous Bcl-xL by anti-sense morpholino, western blot and active-caspase 3 assay. The format is cell-based, human. The protocol: Anti-sense Bcl-xL morpholino oligonucleotides (5′-[…]-3′) (SEQID NO:2) for suppressing expression of endogenous Bcl-xL in vivo, and fluorescein-labeled standard control oligonucleotides were purchased from Gene Tools, LLC (Corvallis, Oreg.). The scrape delivery method was used to deliver the oligonucleotides to the cells. Briefly, cells (1×10^6/well) were seeded into a 6-well culture plate, and after 16 hours of incubation, the medium was changed with 1 mL of fresh medium containing 20 μM morpholino oligonucleotides (chemically modified antisense oligonucleotides). Then, the cells were scraped out of the plates using a cell scraper (SARSTEDT, Newton, N.C.). After gently pipetting up and down twice, the cells were transferred to a new culture plate. After 48 hours of incubation, the cells were treated under the indicated conditions described in the corresponding figures for the example in which the cells were used. […] The effect is not seen in normal cells.
To confirm the effect of Bcl-xL on the synergistic cell killing, we introduced anti-sense Bcl-xL morpholino oligonucleotides (AS Bcl-xL) were introduced into TE5 cells. This was to determine the effect of suppression of the endogenous Bcl-xL in the TE5 cells. […]

The test system of data set [8] is TRAIL-resistant HCE4, TE3, and TE5 cells. Nature of the data set: active-caspase 3 assay, adriamycin plus TRAIL. As to conditions: HCE4, TE3, TE5; 0.5 μM adriamycin 16 hours, then TRAIL 4 hours; no inhibitor. In kind it is cell-based, human.
Protocol: Cells were treated with TRAIL (50 ng/mL final concentration) and 1 μg/mL of anti-6× His (N-terrninal histidine antibody) for 4 hours or for 16 hours. The caspase inhibitor was used at a final concentration of 20 μM, and was added 2 hours prior to the addition of TRAIL. When the cells were treated with both cycloheximide (CHX) and TRAIL, CHX (10 μg/mL final concentration) was added 6 hours before the addition of TRAIL. In the case of adriamycin, cells were pre-treated with adriamycin (0.5 μM final concentration) for 16 hours before the addition of TRAIL.
as §6
Accordingly, adriamycin was tested to determine whether its combination with TRAIL could induce synergistic cell killing in TRAIL-resistant esophageal cancer cells. TRAIL-resistant HCE4, TE3, and TE5 cells were pre-treated with 0.5 μM adriamycin for 16 hours, followed by incubation for 4 hours in the presence of TRAIL. z-LEHD-FMK (20 μM final concentration) was added 2 hours before the addition of TRAIL. An active-caspase 3 assay was used to determine whether apoptosis occurred.
Next, z-LEHD-FMK was tested in the HCE4, TE3 and TE5 cells to determine the protective effect of z-LEHD-FMK, if any, on the synergistic cell death driven by the combination of adriamycin with TRAIL.
Data set [9] concerns HCE4, TE3 and TE5 cells. Briefly: mitochondrial transmembrane potential change, DiOC6 flow cytometry. The format is cell-based, human. Conditions: 0.5 μM adriamycin 16 hours; 100 nM DiOC6. On the procedure:
To detect any change of Δψm after treating cells with adriamycin, 3,3′-dihexyloxacarbocyanine iodide (DiOC6 (Pan et al., 1997)) were used. Briefly, 5×10^5 cells/well were seeded into a 6 well plate. After treatment with adriamycin, the cells were harvested, washed and re-suspended in complete media containing 100 nM DiOC6 (Pan et al., 1997) followed by 30 minutes incubation in a 37° C. water bath.
In addition to determine the potential mitochondrial membrane (Δψm) change after 16 hours of adriamycin (0.5 μM) pretreatment, the HCE4, TE3 and TE5 cells were incubated in the presence of 100 nM DiOC6 (Pan et al., 1997).

The subject of data set [10] is HCE4, TE3 and TE5 cells. Briefly: Bax translocation, cell fractionation and western blot. In kind it is cell-based, human. As to conditions: cytoplasmic and heavy membrane fractions, western blot. The protocol: as §5
To prepare cytoplasmic fraction and mitochondria-rich heavy membrane fraction, cells were harvested, washed, and then re-suspended in RSB100 (10 mM Tris-HCl, pH 7.4, 2.5 mM MgCl2, 100 mM NaCl) containing 35 μg/mL digitonin (Calbiochem, San Diego, Calif.), and 1× complete protease inhibitor cocktail (Roche Diagnostics). After incubation on ice for 5 minutes, the cells were disrupted by passage through a 25G needle. […] Protein quantity was measured using Bio-Rad protein assay reagent (Bio-Rad, Hercules, Calif.). […]

For data set [11], the system named is EPC2. Nature of the data set: mitochondrial transmembrane potential change. The format is cell-based, human. Conditions: data not shown.
In data set [12] the test system is all cells, including cancer cells. Briefly: protection from the killing effect of TRAIL by caspase inhibitors. In kind it is cell-based. Conditions: stated without experimental detail.

In the case of `C[C@@H]1C[C@@H]([C@H](O)CC2CC(=O)NC(=O)C2)C(=O)[C@@H](C)C1` [CHX, cycloheximide], the “sensitization to TRAIL by CHX pre-treatment” value in data set [1] (all cancer cell lines, CHX 10 μg/mL for 6 hours before TRAIL) is on record as “became sensitized to TRAIL”. Also, the “amount of caspase 8 in the DISC after CHX pre-treatment” value in data set [2] was “slight decrease”. The “amount of caspase 8 recruited into DISC after CHX pre-treatment” value in data set [3] was “no increase”. Further, in [4], the “onset of activation of caspase 8, Bid, caspase 9 and cleavage of PARP after TRAIL treatment” value is on record as “approximately 1 hour”.
As to “TRAIL: N-terminal histidine tagged recombinant human TRAIL (Thr-95 to Gly-281) from R&D Systems, cross-linked with anti-6x His antibody”, the “TRAIL sensitivity (more than 30% of the cells active-caspase 3 positive)” value in data set [1] (TE2, TE9 and TE12 cell lines, TRAIL cross-linked with anti-6x His antibody, 16 hours) is reported as “sensitive to TRAIL”. In addition, the “TRAIL cytotoxicity (active-caspase 3)” value was “not affected” in [5] and “showed cytotoxicity in a dose dependent manner” in [6] (TRAIL 5, 10, 25 or 50 ng/mL, 4 hours).
For the compound “AS Bcl-xL: Anti-sense Bcl-xL morpholino oligonucleotide 5'-CGGTTGCTCTGAGACATTTTTATA-3' (SEQID NO:2), from Gene Tools (all phosphorodiamidate morpholino (PMO))”, the “expression of endogenous Bcl-xL” value in data set [7] (20 μM morpholino oligonucleotide, scrape delivery, western blot) was “suppression of endogenous Bcl-xL was observed”. In addition, the “cell death by adriamycin plus TRAIL when Bcl-xL is suppressed” value in [7] (even in the presence of z-LEHD-FMK) is on record as “underwent synergistic apoptotic cell death”.
As for `COc1cccc2c1C(=O)c1c(O)c3c(c(O)c1C2=O)C[C@@](O)(C(=O)CO)C[C@@H]3O[C@H]1C[C@H](N)[C@H](O)[C@H](C)O1` [adriamycin, doxorubicin], the “cell killing by combination of adriamycin and TRAIL” value in [8] is recorded as “the effect was synergistic”. For the same compound, the “drop of Δψm after adriamycin treatment” value in [9] was “a drop of Δψm was observed only in the HCE4 cells”. For the same compound, the “Bax translocation from the cytosol to the mitochondria after adriamycin treatment” value in data set [10] is reported as “only in the HCE4 cells”. The “drop of Δψm after adriamycin” value in data set [11] is “did not induce drop of Δψm”. Besides, the “cell killing by combination of TRAIL and adriamycin” value in [6] (no inhibitor) is “synergistically killed”.
As for z-IETD-FMK, the “protection from the killing effect of TRAIL” value in data set [12] was “protect all cells, including cancer cells, from the killing effect of TRAIL”.
